In PMC7549094 (Journal of Medicinal Chemistry, 2020):

Assays:
[1] = test system: T. brucei bloodstream form overexpressing PSMB5 Y113F; experiment: growth inhibition of T. brucei overexpressing PSMB5 Y113F; type: cell-based
Excerpt: Generation of T. brucei strains ectopically expressing proteasome β4 and β5 subunit variants
All the T. brucei proteasome mutants were generated by following protocols described earlier (Khare et
assembly technology (NEBuilder high fidelity DNA assembly cloning kit). The sense (5′-
Y113F gene was generated from the wild-type PSMB5 construct by site-directed mutagenesis using
mutagenic sense (5′- [sequence]tcgta[sequence]-3′), antisense (5′-
[sequence]-3′) primers and QuikChange II Site-Directed Mutagenesis Kit
(Stratagene). The sequences of the wild-type and mutant PSMB5 genes were verified by sequencing and
both gene versions were cloned into the T. brucei expression vector pHD1034 under control of a
ribosomal RNA promoter. Transfected T. brucei Lister 427 cells were selected in medium supplemented
with puromycin at 1 μg/ml. Susceptibility of transfected T. brucei cell lines to compounds was assessed
after 2 days of compound treatment. Parasite viability was determined with CellTiter-Glo. All assays were
carried out in three biological replicates. Reported EC50 values for T. brucei parasites ectopically
expressing PSMB5 proteins were calculated from three technical replicates.
inhibition of T. brucei bloodstream form constitutively overexpressing wild -type PSMB5 or PSMBY113F

hr TP ag = biological target: T1, hr TP ag (Homo sapiens, UniProt P21731); experiment: receptor profile (Table S4); type: biochemical
T1 sequence (P21731 1-343): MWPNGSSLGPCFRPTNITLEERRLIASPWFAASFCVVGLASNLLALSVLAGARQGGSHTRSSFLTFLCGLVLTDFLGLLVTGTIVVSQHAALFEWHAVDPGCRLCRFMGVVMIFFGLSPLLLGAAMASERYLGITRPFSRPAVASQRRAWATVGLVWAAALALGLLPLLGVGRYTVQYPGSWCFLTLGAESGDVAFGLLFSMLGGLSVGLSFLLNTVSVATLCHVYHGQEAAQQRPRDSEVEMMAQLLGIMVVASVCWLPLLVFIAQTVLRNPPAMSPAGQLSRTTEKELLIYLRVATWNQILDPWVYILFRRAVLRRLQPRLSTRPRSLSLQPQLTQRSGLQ

hr Al2A ag = biological target: T2, hr Al2A ag (Homo sapiens, UniProt P08913); experiment: receptor profile (Table S4); type: biochemical
T2 sequence (P08913 1-465): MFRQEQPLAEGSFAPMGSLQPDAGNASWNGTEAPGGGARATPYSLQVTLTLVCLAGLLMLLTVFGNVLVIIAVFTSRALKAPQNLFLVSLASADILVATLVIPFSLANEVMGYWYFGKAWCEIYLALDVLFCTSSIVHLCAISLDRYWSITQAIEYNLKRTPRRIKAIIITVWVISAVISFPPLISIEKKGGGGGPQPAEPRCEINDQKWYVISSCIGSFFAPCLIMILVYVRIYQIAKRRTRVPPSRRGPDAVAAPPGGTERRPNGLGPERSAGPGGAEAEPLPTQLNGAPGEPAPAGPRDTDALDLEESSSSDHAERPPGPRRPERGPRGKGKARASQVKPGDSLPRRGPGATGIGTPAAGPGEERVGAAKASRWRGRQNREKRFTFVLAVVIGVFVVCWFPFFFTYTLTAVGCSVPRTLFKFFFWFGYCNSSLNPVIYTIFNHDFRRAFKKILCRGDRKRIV

hr PR ag = biological target: T3, hr PR ag (Homo sapiens, UniProt P06401); experiment: receptor profile (Table S4); type: biochemical
T3 sequence (P06401 1-933): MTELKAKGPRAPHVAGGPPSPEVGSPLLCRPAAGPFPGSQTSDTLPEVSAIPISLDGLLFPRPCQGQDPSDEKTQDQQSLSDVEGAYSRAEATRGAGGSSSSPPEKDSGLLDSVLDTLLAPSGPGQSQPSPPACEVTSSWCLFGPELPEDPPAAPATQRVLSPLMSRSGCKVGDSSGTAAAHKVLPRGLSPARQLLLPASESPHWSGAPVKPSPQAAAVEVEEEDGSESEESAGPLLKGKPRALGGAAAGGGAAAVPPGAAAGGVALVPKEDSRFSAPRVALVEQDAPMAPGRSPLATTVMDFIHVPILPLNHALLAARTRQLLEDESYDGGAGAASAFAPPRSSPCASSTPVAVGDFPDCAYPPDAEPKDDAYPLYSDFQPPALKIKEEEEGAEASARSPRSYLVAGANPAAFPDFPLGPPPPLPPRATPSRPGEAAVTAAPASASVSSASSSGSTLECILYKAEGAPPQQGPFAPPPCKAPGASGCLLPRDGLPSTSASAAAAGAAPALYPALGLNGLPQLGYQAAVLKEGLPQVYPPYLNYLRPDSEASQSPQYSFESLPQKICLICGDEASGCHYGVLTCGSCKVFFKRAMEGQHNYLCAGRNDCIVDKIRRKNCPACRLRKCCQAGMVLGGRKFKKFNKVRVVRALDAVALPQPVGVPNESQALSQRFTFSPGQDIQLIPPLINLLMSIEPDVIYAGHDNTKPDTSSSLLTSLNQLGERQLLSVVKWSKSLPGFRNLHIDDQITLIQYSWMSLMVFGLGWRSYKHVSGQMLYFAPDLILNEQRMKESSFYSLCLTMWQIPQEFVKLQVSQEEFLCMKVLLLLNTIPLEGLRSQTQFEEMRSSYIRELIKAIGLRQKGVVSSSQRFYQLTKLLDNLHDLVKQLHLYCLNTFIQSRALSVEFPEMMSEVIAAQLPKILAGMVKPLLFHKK

hr Beta1 = hr Beta1 (Homo sapiens, UniProt P08588); experiment: receptor profile (Table S4); type: binding
hr Beta1, sequence (P08588 whole entry): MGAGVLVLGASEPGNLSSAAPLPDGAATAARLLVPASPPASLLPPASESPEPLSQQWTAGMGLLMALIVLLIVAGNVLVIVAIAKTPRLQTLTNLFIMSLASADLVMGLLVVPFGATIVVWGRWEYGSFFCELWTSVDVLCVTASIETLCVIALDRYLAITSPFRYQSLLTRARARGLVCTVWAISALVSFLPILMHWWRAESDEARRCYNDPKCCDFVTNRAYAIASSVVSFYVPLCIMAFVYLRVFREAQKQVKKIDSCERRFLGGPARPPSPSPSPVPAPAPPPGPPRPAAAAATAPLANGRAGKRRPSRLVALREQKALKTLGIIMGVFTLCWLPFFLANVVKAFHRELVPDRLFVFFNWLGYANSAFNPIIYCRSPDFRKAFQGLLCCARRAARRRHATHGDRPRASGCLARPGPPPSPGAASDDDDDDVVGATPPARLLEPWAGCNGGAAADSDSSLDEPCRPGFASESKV

hr 5-HT2A ag = hr 5-HT2A ag (Homo sapiens, UniProt P28223); experiment: receptor profile (Table S4); type: biochemical
hr 5-HT2A ag, sequence (P28223 whole entry): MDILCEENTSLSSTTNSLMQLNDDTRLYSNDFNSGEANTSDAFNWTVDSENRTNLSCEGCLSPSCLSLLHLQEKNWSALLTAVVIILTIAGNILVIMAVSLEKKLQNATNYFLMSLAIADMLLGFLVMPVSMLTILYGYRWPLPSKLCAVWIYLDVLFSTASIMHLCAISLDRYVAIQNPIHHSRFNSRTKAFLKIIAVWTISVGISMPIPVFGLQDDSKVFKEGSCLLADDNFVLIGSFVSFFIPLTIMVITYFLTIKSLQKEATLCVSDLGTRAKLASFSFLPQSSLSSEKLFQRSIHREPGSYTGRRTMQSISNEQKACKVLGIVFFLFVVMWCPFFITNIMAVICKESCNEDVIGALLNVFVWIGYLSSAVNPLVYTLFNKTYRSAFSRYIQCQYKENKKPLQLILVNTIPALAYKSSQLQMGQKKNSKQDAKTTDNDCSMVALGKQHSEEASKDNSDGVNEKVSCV

[2] = microsomal extraction ratio, 1 h incubation in microsomes
hr Alpha2B = biological target: T4, hr Alpha2B (Homo sapiens, UniProt P18089); experiment: receptor profile (Table S4); type: binding
T4 sequence (P18089 1-450): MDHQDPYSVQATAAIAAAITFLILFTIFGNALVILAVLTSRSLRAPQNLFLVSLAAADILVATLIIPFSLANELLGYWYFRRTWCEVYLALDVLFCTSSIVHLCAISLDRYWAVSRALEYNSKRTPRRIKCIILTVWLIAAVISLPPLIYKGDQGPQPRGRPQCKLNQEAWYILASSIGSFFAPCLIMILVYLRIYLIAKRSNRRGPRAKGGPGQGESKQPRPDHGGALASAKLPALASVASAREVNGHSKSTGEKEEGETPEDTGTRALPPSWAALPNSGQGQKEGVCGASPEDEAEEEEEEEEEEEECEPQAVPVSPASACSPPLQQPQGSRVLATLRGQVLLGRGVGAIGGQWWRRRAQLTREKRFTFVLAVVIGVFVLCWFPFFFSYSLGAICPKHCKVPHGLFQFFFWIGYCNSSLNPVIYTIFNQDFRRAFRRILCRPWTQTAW

hERG = hERG (Homo sapiens, UniProt Q12809); experiment: receptor profile (Table S4)
hERG, sequence (Q12809 whole entry): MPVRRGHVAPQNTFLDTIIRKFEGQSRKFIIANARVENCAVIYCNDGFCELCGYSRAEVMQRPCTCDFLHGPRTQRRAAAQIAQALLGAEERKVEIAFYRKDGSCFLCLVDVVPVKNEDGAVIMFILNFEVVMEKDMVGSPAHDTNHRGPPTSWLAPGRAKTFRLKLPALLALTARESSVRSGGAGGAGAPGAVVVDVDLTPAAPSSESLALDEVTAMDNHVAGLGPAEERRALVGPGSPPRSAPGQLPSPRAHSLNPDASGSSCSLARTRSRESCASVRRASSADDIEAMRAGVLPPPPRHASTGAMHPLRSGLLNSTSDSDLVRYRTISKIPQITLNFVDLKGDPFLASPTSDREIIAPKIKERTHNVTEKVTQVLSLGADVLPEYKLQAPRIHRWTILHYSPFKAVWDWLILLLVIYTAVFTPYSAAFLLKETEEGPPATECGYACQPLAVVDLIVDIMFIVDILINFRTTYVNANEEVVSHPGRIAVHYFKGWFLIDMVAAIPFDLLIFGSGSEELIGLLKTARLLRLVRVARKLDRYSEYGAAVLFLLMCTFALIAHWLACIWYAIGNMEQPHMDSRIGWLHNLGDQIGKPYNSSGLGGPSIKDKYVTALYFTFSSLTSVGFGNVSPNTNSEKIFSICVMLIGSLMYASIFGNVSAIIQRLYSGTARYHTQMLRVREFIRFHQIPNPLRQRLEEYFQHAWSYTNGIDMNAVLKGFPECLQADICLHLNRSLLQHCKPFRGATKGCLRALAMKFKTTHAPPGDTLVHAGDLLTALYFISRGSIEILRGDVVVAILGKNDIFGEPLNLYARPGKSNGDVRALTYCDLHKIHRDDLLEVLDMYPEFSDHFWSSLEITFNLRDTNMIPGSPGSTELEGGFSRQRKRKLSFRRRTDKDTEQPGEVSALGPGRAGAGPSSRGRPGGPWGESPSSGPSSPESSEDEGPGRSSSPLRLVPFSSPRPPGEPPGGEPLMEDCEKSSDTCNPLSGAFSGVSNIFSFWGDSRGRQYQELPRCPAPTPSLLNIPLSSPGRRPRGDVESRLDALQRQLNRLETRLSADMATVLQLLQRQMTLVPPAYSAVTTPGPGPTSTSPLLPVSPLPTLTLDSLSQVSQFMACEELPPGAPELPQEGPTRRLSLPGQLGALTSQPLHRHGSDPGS

[3] = male beagle dog, 1.0 mg/kg PO, dose-normalized

For `Cc1nc(C)c(C(=O)Nc2ccc(F)c(-c3nc4ncc(-c5ncccc5C)cn4n3)c2)o1` [compound 1, N-(4-Fluoro-3-(6-(3-methylpyridin-2-yl)-[1,2,4]triazolo[1,5-a]pyrimidin-2-yl)phenyl)-2,4-dimethyloxazole-5-carboxamide], the “CL as % of hepatic blood flow” value (dog, IV, fumarate salt) was 37 % of hepatic blood flow, the “DN AUC PO” value [3] was 1.5 µM·h and the “DN Cmax PO” value [3] was 300 nM. For the same molecule, the “effect of β5 Y113F mutation of T. brucei proteasome on activity” value ([1]; T. brucei, β5 Y113F) was “loss of activity”, the EC50 ([1]; Trypanosoma brucei, 48 h, read-out: EC50, T. brucei growth) was 3.3 µM and the EC50/IC50 (hr TP ag; hr TP ag) was over 30 µM. It also gave an inhibition at 10 µM (hr TP ag; read-out: % inh/act @ 10 µM) of -5%, an inhibition at 30 µM (hr TP ag; read-out: % inh/act @ 30 µM) of -2% and an EC50/IC50 (hr Al2A ag; hr Al2A ag) of over 30 µM. The inhibition at 10 µM (hr Al2A ag; read-out: % inh/act @ 10 µM) was 0%, the inhibition at 30 µM (hr Al2A ag; read-out: % inh/act @ 30 µM) was 0% and the EC50/IC50 (hr PR ag; hr PR ag) was over 30 µM. For the same molecule, the inhibition at 10 µM (hr PR ag; read-out: % inh/act @ 10 µM) was -2%, the inhibition at 30 µM (hr PR ag; read-out: % inh/act @ 30 µM) was 0% and the EC50/IC50 (hr Beta1; hr Beta1) was over 30 µM. For the same molecule, the inhibition at 10 µM (hr Beta1; read-out: % inh/act @ 10 µM) was 6%, the inhibition at 30 µM (hr Beta1; read-out: % inh/act @ 30 µM) was 10% and the EC50/IC50 (hr 5-HT2A ag; hr 5-HT2A ag) was over 30 µM. It also gave an inhibition at 10 µM (hr 5-HT2A ag; read-out: % inh/act @ 10 µM) of -7%, an inhibition at 30 µM (hr 5-HT2A ag; read-out: % inh/act @ 30 µM) of -10% and an ER dog [2] of under 0.24. For the same molecule, the EC50/IC50 (hr Alpha2B; hr Alpha2B) was over 30 µM, the inhibition at 10 µM (hr Alpha2B; read-out: % inh/act @ 10 µM) was 13% and the inhibition at 30 µM (hr Alpha2B; read-out: % inh/act @ 30 µM) was 16%. It also gave an EC50/IC50 (hERG; hERG) of over 30 µM, an inhibition at 10 µM (hERG; human) of -36% and an inhibition at 30 µM (hERG; human) of -25%. For the same molecule, the “% inh/act @ 10 µM” value (hr GABAA ag) was -11% and the “% inh/act @ 30 µM” value (hr GABAA ag) was -2%.
